Source: ChEMBL document CHEMBL5036320, “Discovery of Icenticaftor (QBW251), a Cystic Fibrosis Transmembrane Conductance Regulator Potentiator with Clinical Efficacy in Cystic Fibrosis and Chronic Obstructive Pulmonary Disease” (J Med Chem, 2021)
In brackets after ≈: the same amount, converted by molar mass.

Tests used:
[1] = Solubility of the compound at pH 6.8; type: physicochemical; conditions: buffer
[2] = Oral bioavailability in Sprague-Dawley rat at 3 mg/kg measured upto 48 hrs by LC-MS/MS analysis; type: ADME, organism-based; conditions: in vivo
[3] = Cmax in Sprague-Dawley rat at 3 mg/kg, po and 0.5 mg/kg, iv measured upto 48 hrs by LC-MS/MS analysis; type: ADME, organism-based; set-up: dose 3 mg/kg, time <=48; conditions: in vivo
[4] = target: T1, Cystic fibrosis transmembrane conductance regulator (Homo sapiens, UniProt P13569, F508DEL); assay: Potentiation of CFTR F508del mutant (unknown origin) expressed in CHO cells assessed as chloride transport by measuring membrane potential incubated for 5 to 30 mins in presence of forskolin by Quattro assay; type: cell-based
[5] = tested on: Cystic fibrosis transmembrane conductance regulator (Homo sapiens), P13569 [F508del]; assay: Potentiation of CFTR F508del mutant (unknown origin) expressed in CHO cells assessed as chloride transport by measuring membrane potential incubated for 5 to 30 mins in presence of forskolin by Quattro assay relative to PG-01; type: cell-based; set-up: concentration or dose not given beside the values; conditions: filed as activator, time 5-30 min
[6] = Clearance in Sprague-Dawley rat at 3 mg/kg, po and 0.5 mg/kg, iv measured upto 48 hrs by LC-MS/MS analysis; type: ADME, organism-based; conditions: in vivo
[7] = Volume of distribution at steady state in Sprague-Dawley rat at 3 mg/kg, po and 0.5 mg/kg, iv measured upto 48 hrs by LC-MS/MS analysis; type: ADME, organism-based; conditions: in vivo, read-out: Vdss
[8] = Mean residence time in Sprague-Dawley rat at 3 mg/kg, po and 0.5 mg/kg, iv measured upto 48 hrs by LC-MS/MS analysis; type: ADME, organism-based; conditions: in vivo
[9] = Plasma Protein binding in Sprague-Dawley rat at 5 uM incubated for 4 hrs by rapid equilibrium dialysis; type: ADME, cell-free; conditions: read-out: PPB (converted)
[10] = Cmax in Sprague-Dawley rat at 3 mg/kg, po and 1 mg/kg, iv measured upto 48 hrs by LC-MS/MS analysis; type: ADME, organism-based; set-up: dose 3 mg/kg, time <=48; conditions: in vivo
[11] = Unbound Cmax in Sprague-Dawley rat at 3 mg/kg, po and 1 mg/kg, iv measured upto 48 hrs by LC-MS/MS analysis; type: ADME, organism-based; conditions: in vivo
[12] = Volume of distribution in Sprague-Dawley rat at 3 mg/kg, po and 1 mg/kg, iv measured upto 48 hrs by LC-MS/MS analysis; type: ADME, organism-based; conditions: in vivo
[13] = Mean residence time in Sprague-Dawley rat at 3 mg/kg, po and 1 mg/kg, iv measured upto 48 hrs by LC-MS/MS analysis; type: ADME, organism-based; conditions: in vivo
[14] = Plasma Protein binding in human incubated for 4 hrs by equilibrium dialysis method; type: ADME, cell-free; conditions: read-out: PPB (converted)
[15] = target: T1, Cystic fibrosis transmembrane conductance regulator; assay: Potentiation of CFTR F508del mutant (unknown origin) expressed in FRT cells assessed as chloride transport by measuring membrane potential in presence of forskolin; type: cell-based
[16] = tested on: Cystic fibrosis transmembrane conductance regulator (Homo sapiens), P13569 [F508del]; assay: Potentiation of CFTR F508del mutant (unknown origin) expressed in FRT cells assessed as chloride transport by measuring membrane potential in presence of forskolin relative to PG-01; type: cell-based; conditions: filed as activator
[17] = target: T2, Cystic fibrosis transmembrane conductance regulator (Homo sapiens, UniProt P13569); assay: Potentiation of wild-type CFTR (unknown origin) expressed in FRT cells assessed as chloride transport by measuring membrane potential in presence of forskolin; type: cell-based
Target sequence in this assay (P13569 whole entry): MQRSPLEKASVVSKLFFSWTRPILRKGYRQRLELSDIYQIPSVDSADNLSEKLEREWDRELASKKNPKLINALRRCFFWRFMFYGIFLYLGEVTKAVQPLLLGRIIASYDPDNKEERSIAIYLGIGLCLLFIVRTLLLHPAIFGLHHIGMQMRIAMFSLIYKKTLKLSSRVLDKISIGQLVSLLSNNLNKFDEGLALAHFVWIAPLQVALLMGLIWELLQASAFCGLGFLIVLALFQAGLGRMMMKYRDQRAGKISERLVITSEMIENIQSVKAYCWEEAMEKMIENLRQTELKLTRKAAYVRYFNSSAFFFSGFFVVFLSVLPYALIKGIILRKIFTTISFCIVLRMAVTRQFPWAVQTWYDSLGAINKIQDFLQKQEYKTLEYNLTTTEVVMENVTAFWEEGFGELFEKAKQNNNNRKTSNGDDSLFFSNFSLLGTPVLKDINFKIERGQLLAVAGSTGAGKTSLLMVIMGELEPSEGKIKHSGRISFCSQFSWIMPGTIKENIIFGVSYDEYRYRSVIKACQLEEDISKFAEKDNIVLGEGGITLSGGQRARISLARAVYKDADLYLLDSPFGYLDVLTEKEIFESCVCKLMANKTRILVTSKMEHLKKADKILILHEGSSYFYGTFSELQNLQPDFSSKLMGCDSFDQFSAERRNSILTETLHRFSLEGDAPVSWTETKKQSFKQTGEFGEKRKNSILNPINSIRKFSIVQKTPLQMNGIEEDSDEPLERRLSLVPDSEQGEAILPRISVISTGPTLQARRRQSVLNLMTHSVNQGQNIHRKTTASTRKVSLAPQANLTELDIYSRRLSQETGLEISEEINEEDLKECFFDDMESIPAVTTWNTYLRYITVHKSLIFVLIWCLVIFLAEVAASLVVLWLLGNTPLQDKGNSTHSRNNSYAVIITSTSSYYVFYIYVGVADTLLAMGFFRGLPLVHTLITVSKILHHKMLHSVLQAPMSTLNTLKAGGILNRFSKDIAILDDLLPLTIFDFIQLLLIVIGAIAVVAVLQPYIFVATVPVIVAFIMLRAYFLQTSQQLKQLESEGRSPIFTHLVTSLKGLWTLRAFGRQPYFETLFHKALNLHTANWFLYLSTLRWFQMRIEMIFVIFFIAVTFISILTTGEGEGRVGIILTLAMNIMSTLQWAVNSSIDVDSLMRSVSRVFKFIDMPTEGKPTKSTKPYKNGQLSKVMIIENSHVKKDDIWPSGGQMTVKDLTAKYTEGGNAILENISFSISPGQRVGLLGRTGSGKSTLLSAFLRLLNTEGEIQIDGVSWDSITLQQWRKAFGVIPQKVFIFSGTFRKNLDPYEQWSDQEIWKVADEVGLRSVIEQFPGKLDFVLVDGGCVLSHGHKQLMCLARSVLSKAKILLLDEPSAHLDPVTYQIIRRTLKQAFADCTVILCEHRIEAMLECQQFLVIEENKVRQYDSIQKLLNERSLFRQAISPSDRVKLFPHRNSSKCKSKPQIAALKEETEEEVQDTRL

[18] = target: T2, Cystic fibrosis transmembrane conductance regulator; assay: Potentiation of wild-type CFTR (unknown origin) expressed in FRT cells assessed as chloride transport by measuring membrane potential in presence of forskolin relative to PG-01; type: cell-based; conditions: filed as activator
Target sequence in this assay (P13569 whole entry, looked up): as the sequence (P13569 whole entry) above

[19] = target: Cystic fibrosis transmembrane conductance regulator (Homo sapiens, UniProt P13569, G551D); assay: Potentiation of CFTR G551D mutant (unknown origin) expressed in FRT cells assessed as chloride transport by measuring membrane potential in presence of forskolin; type: cell-based
[20] = tested on: Cystic fibrosis transmembrane conductance regulator (Homo sapiens), P13569 [G551D]; assay: Potentiation of CFTR G551D mutant (unknown origin) expressed in FRT cells assessed as chloride transport by measuring membrane potential in presence of forskolin relative to PG-01; type: cell-based; conditions: filed as activator
[21] = target: T1, Cystic fibrosis transmembrane conductance regulator; assay: Potentiation of CFTR F508 deletion mutant (unknown origin) expressed in HBE cells assessed as change in short circuit current in presence of forskolin and amiloride; type: cell-based
[22] = tested on: Cystic fibrosis transmembrane conductance regulator (Homo sapiens), P13569 [F508del]; assay: Potentiation of CFTR F508 deletion mutant (unknown origin) expressed in HBE cells assessed as change in short circuit current in presence of forskolin and amiloride relative to PG-01; type: cell-based; conditions: filed as activator
[23] = Drug metabolism in Sprague-Dawley rat bile assessed as glutathione adduct M8 formation at 1 mg/kg, po after 24 hrs by LC MS/MS analysis; type: ADME, organism-based; conditions: in vivo
[24] = Drug metabolism in Sprague-Dawley rat bile assessed as glutathione adduct M9 formation at 1 mg/kg, po after 24 hrs by LC MS/MS analysis; type: ADME, organism-based; conditions: in vivo
[25] = Toxicity in Wistar Han rat assessed as NOAEL; conditions: in vivo, dose 10 mg/kg
[26] = Clearance in Sprague-Dawley rat at 3 mg/kg, po and 1 mg/kg, iv measured upto 48 hrs by LC MS/MS analysis; type: ADME, organism-based; conditions: in vivo
[27] = Oral bioavailability in Beagle dog at 3 mg/kg after 48 hrs by LC-MS/MS analysis; type: ADME, organism-based, Canis lupus familiaris; conditions: in vivo
[28] = Oral bioavailability in cynomolgus monkey at 10 mg/kg after 48 hrs by LC-MS/MS analysis; type: ADME, organism-based, Macaca fascicularis; conditions: in vivo
[29] = Cmax in Beagle dog at 3 mg/kg, po or 0.46 mg/kg, iv after 48 hrs by LC-MS/MS analysis; type: ADME, organism-based, Canis lupus familiaris; set-up: time 48 hrs, dose 3 mg/kg; conditions: in vivo
[30] = Cmax in cynomolgus monkey at 10 mg/kg, po or 0.1 mg/kg, iv after 48 hrs by LC-MS/MS analysis; type: ADME, organism-based, Macaca fascicularis; set-up: time 48 hrs, dose 10 mg/kg; conditions: in vivo
[31] = Unbound Cmax in Beagle dog at 3 mg/kg, po or 0.46 mg/kg, iv after 48 hrs by LC-MS/MS analysis; type: ADME, organism-based, Canis lupus familiaris; conditions: in vivo
[32] = Unbound Cmax in cynomolgus monkey plasma measured at 10 mg/kg, po or 0.1 mg/kg, iv after 48 hrs by LC-MS/MS analysis; type: ADME, organism-based, Macaca fascicularis; conditions: in vivo
[33] = Clearance in Beagle dog plasma at 3 mg/kg, po or 0.46 mg/kg, iv after 48 hrs by LC-MS/MS analysis; type: ADME, organism-based, Canis lupus familiaris
[34] = Clearance in cynomolgus monkey plasma at 10 mg/kg, po or 0.1 mg/kg, iv after 48 hrs by LC-MS/MS analysis; type: ADME, organism-based, Macaca fascicularis
[35] = Clearance in Beagle dog blood at 3 mg/kg, po or 0.46 mg/kg, iv after 48 hrs by LC-MS/MS analysis; type: ADME, organism-based, Canis lupus familiaris
[36] = Clearance in cynomolgus monkey blood at 10 mg/kg, po or 0.1 mg/kg, iv after 48 hrs by LC-MS/MS analysis; type: ADME, organism-based, Macaca fascicularis
[37] = Volume of distribution at steady state in Beagle dog at 3 mg/kg, po or 0.46 mg/kg, iv after 48 hrs by LC-MS/MS analysis; type: ADME, organism-based, Canis lupus familiaris; conditions: in vivo, read-out: Vdss
[38] = Volume of distribution at steady state in cynomolgus monkey at 10 mg/kg, po or 0.1 mg/kg, iv after 48 hrs by LC-MS/MS analysis; type: ADME, organism-based, Macaca fascicularis; conditions: in vivo, read-out: Vdss
[39] = Mean residence time in Beagle dog at 3 mg/kg, po or 0.46 mg/kg, iv after 48 hrs by LC-MS/MS analysis; type: ADME, organism-based, Canis lupus familiaris; conditions: in vivo
[40] = Mean residence time in cynomolgus monkey at 10 mg/kg, po or 0.1 mg/kg, iv after 48 hrs by LC-MS/MS analysis; type: ADME, organism-based, Macaca fascicularis; conditions: in vivo
[41] = target: T2, Cystic fibrosis transmembrane conductance regulator; assay: Potentiation of wild type CFTR (unknown origin) expressed in HBE cells assessed as change in short circuit current in presence of forskolin and amiloride; type: cell-based
Target sequence in this assay (P13569 whole entry): as above

[42] = target: T2, Cystic fibrosis transmembrane conductance regulator; assay: Potentiation of wild type CFTR (unknown origin) expressed in HBE cells assessed as change in short circuit current in presence of forskolin and amiloride relative to PG-01; type: cell-based; conditions: filed as activator
Target sequence in this assay (P13569 whole entry, looked up): as the sequence (P13569 whole entry) above

[43] = Toxicity in Wistar Han rat assessed as tolerability at 100 mg/kg, po after 2 days; type: organism-based; conditions: in vivo, 48 h, time 2 day
[44] = Toxicity in human assessed as tolerability upto […], po bid; type: organism-based; conditions: in vivo

Chain of Cystic fibrosis transmembrane conductance regulator (Homo sapiens), P13569 [F508del] (P13569 as listed by the source): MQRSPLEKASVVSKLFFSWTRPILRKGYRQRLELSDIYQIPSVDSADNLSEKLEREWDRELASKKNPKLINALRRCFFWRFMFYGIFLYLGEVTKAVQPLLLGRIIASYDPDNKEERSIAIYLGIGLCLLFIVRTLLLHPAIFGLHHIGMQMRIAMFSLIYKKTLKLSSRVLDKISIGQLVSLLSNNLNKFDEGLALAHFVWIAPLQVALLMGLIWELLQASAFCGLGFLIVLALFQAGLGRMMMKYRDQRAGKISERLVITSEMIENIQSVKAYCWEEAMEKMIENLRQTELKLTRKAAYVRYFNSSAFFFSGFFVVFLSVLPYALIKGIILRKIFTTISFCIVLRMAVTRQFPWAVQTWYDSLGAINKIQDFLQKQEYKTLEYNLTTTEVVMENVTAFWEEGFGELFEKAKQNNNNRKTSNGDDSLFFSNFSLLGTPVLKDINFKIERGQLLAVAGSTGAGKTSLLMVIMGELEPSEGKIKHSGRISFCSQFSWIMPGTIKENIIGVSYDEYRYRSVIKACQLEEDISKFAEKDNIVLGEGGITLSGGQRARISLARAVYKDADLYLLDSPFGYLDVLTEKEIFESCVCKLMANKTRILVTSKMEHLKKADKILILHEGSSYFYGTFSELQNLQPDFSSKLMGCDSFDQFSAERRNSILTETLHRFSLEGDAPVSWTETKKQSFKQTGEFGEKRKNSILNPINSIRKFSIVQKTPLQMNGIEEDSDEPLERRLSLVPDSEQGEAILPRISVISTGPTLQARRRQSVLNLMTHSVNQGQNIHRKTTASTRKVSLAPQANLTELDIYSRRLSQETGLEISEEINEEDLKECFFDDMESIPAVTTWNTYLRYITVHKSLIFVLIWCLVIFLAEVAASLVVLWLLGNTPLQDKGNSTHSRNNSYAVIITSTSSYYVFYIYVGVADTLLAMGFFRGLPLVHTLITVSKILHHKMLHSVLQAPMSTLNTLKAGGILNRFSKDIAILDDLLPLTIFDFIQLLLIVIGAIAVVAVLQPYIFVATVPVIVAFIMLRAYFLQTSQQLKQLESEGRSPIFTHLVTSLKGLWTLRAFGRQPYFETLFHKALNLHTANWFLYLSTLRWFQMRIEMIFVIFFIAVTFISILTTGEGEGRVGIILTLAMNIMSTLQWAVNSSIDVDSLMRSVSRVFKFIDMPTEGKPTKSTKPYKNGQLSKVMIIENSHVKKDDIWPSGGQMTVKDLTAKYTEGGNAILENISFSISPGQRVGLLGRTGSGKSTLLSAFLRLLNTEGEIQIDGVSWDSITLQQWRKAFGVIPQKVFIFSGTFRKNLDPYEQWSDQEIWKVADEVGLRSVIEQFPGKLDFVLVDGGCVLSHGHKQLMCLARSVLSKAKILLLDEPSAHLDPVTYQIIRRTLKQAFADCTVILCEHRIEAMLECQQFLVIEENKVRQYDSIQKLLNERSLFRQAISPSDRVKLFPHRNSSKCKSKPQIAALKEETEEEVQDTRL
T1 sequence (P13569 as listed by the source): as above
Chain of Cystic fibrosis transmembrane conductance regulator (Homo sapiens), P13569 [G551D] (P13569 whole entry G551D): as the sequence (P13569 whole entry) above, with G551D counted along it
Chain of Cystic fibrosis transmembrane conductance regulator (Homo sapiens, UniProt P13569, G551D) (P13569 whole entry G551D): as the sequence (P13569 whole entry) above, with G551D counted along it

SMILES | solubility [1] | bioavailability [2] | EC50 [4] | Activity [5] | fraction unbound at 4 h, 5 µM [9] | Cmax [10] | fCmax [11] | Vd [12] | MRT [13] | EC50 [15] | Activity [16] | EC50 [17] | Activity [18] | EC50 [19] | Activity [20] | EC50 [21] | Activity [22] | NOAEL [25] | clearance [26] | further results
Nc1cc(C(F)(F)F)c(Br)nc1C(=O)NC[C@@H](O)C(F)(F)F | 177 µg/mL (≈ 447 µM) | 32% | 9 nM | 100% | – | – | – | – | – | – | – | – | – | – | – | – | – | – | – | Cmax [3]: 271 nM; clearance [6]: 53 mL/min/kg; Vd [7]: 3.2 L/kg; MRT [8]: 1 h
C[C@](O)(CNC(=O)c1nc(Br)c(C(F)(F)F)cc1N)C(F)(F)F | 140 µg/mL (≈ 341 µM) | 114% | 15 nM | 107% | 0.031 | 634 nM | 25 nM | 6.5 L/kg | 6.4 h | 18 nM | 106% | 43 nM | 140% | 150 nM | 67% | 25 nM | 113% | < 10 mg/kg | 17 mL/min/kg | fraction unbound at 4 h [14]: 0.025; Drug metabolism [23]: Metabolite_Detected; Drug metabolism [24]: Metabolite_Detected
COc1nc(C(=O)NC[C@](C)(O)C(F)(F)F)c(N)cc1C(F)(F)F [ICENTICAFTOR] | 237 µg/mL (≈ 656 µM) | 90% | 47 nM | 96% | 0.097 | 1360 nM | 132 nM | 3 L/kg | 10.2 h | 79 nM | 92% | 113 nM | 79% | 497 nM | 40% | 39 nM | 84% | 10 mg/kg | 5 mL/min/kg | bioavailability [27]: 146%; bioavailability [28]: 26%; Cmax [29]: 1950 nM; Cmax [30]: 2300 nM; fCmax [31]: 102 nM; fCmax [32]: 276 nM; clearance [33]: 29 mL/min/kg; clearance [34]: 18 mL/min/kg; clearance [35]: 41 mL/min/kg; clearance [36]: 20.2 mL/min/kg; Vd [37]: 7.5 L/kg; Vd [38]: 3.5 L/kg; MRT [39]: 4.4 h; MRT [40]: 3.3 h; EC50 [41]: 72 nM; Activity [42]: 87%; Activity [43]: Non-Toxic; Activity [44]: Non-Toxic
